System: yeast genes (expressed mRNA)
Experiment: DNA chip measurement of expressed mRNA of yeast genes after culture with a toxic chemical substance
Assay type: cell-based, Saccharomyces cerevisiae S288C
Experimental: Yeast (Saccharomyces cerevisiae S288C (a SUC2mal mel gap2 CUP1)) were cultured at 25° C. on YPD medium (yeast extract 1%, polypeptone 2%, glucose 2%). One of toxic chemical substances was added to the cell at logarithmic growth phase, and the cell was further cultured for two hours. Cell was cultured without any chemical substance in the same condition, and was used as a control. Concentrations of the chemical substances were defined to inhibit the growth of the yeast but not lead to death.
After the completion of cultivation, the culture was centrifuged to collect the cells. To the cells, sodium acetate buffer (50 mM sodium acetate, 10 mM EDTA, 1% SDS) was added, and the mixture was shaken at 65° C. for five minutes, followed by returning to room temperature, and obtaining the supernatant, which procedure was repeated two times. To the supernatant, ½ amount of a solution of phenol/chloroform (1:1) was added, and the mixture was centrifuged to give a supernatant, an equal amount of chloroform was added, and the mixture was centrifuged to give a supernatant. To the supernatant, an equal amount of isopropanol containing 0.3 M sodium acetate was added, and the mixture was allowed to stand at room temperature for 30 minutes, after which the mixture was centrifuged to give sediment of the whole RNAs. Seventy % ethanol was added to the sediment, and the mixture was again centrifuged to give sediment, which was then dried and dissolved in water. mRNA was isolated from the whole RNAs as followings. In view of the fact that a poly A chain is attached to the 3′ terminus of mRNA, a polynucleotide having a poly T structure which was immobilized on the surface of latex beads was used to trap the mRNA, and then the mRNA was washed and eluted with spine column (Oligotex-dT30<Super>mRNA Purification Kit, Takara). Reverse transcription of the mRNA was conducted with a reverse transcriptase (Super Script II Reverse Transcriptase; catalogue No. 18064-014, GibcoBRL) using fluorescence-labeled nucleotides to give cDNAs that were introduced with Cy3-dUTP or Cy5-dUTP during the reverse transcription.
The labeled cDNAs were dissolved in TE buffer (10 mM Tris-HCl/1 mM EDTA, pH 8.0), and the solution was dropped on the DNA chip containing the whole genes of yeast (DNA Chip Research Inc. Japan) so that the cDNAs were hybridized on the DNA chip at 65° C. for over 12 hours. The fluoresces intensity of the DNA chip was read with a scanner, and the ratio relative to the fluorescence intensity resulting from the absence of chemical substance was estimated as the following, which is shown in Tables 1 to 9.
In the Tables, “Intensity” indicated in the rightmost column is a value of the level of expressed mRNA of each gene in control cells as divided by the average level of the expressions of the whole genes. A gene of which mRNA level is lower in control, and is higher in cases of addition of chemical substance, is especially useful in the detection of toxic substances.
Here, when a ratio of an amount of mRNA expressed in the presence of the chemical substance to an amount of mRNA expressed in the absence of the chemical substance is two or more, then it is considered significant.

With `N#Cc1c(Cl)c(Cl)c(Cl)c(C#N)c1Cl` [(9), 2,4,5,6-Tetrachloro-1,3-benzenedicarbonitrile] the “The level of expressed mRNA in the presence of chemical substance/The level of expressed mRNA in the absence of chemical substance” value (yeast gene YJL108C, cultured two hours with substance) was 0.3, the “The level of expressed mRNA in the presence of chemical substance/The level of expressed mRNA in the absence of chemical substance” value (yeast gene YJL144W, cultured two hours with substance) was 14.6 and the “The level of expressed mRNA in the presence of chemical substance/The level of expressed mRNA in the absence of chemical substance” value (yeast gene YJL149W, cultured two hours with substance) was 1.5. For the same molecule, the “The level of expressed mRNA in the presence of chemical substance/The level of expressed mRNA in the absence of chemical substance” value (yeast gene YJL151C, cultured two hours with substance) was 0.5, the “The level of expressed mRNA in the presence of chemical substance/The level of expressed mRNA in the absence of chemical substance” value (yeast gene YJL152W, cultured two hours with substance) was 0.3 and the “The level of expressed mRNA in the presence of chemical substance/The level of expressed mRNA in the absence of chemical substance” value (yeast gene YJL161W, cultured two hours with substance) was 3.1. The “The level of expressed mRNA in the presence of chemical substance/The level of expressed mRNA in the absence of chemical substance” value (yeast gene YJL163C, cultured two hours with substance) was 14.5, the “The level of expressed mRNA in the presence of chemical substance/The level of expressed mRNA in the absence of chemical substance” value (yeast gene YJL171C, cultured two hours with substance) was 1.0 and the “The level of expressed mRNA in the presence of chemical substance/The level of expressed mRNA in the absence of chemical substance” value (yeast gene YJL186W, cultured two hours with substance) was 0.2. For the same molecule, the “The level of expressed mRNA in the presence of chemical substance/The level of expressed mRNA in the absence of chemical substance” value (yeast gene YJR008W, cultured two hours with substance) was 1.8, the “The level of expressed mRNA in the presence of chemical substance/The level of expressed mRNA in the absence of chemical substance” value (yeast gene YJR074W, cultured two hours with substance) was 3.7 and the “The level of expressed mRNA in the presence of chemical substance/The level of expressed mRNA in the absence of chemical substance” value (yeast gene YJR085C, cultured two hours with substance) was 3.7. For the same molecule, the “The level of expressed mRNA in the presence of chemical substance/The level of expressed mRNA in the absence of chemical substance” value (yeast gene YJR155W) was 38.2, the “The level of expressed mRNA in the presence of chemical substance/The level of expressed mRNA in the absence of chemical substance” value (yeast gene YJR155W, cultured for two hours with substance) was 38.2 and the “The level of expressed mRNA in the presence of chemical substance/The level of expressed mRNA in the absence of chemical substance” value (yeast gene YKL071W, cultured two hours with substance) was 162.2. For the same molecule, the “The level of expressed mRNA in the presence of chemical substance/The level of expressed mRNA in the absence of chemical substance” value (yeast gene YKL086W, cultured two hours with substance) was 8.2, the “The level of expressed mRNA in the presence of chemical substance/The level of expressed mRNA in the absence of chemical substance” value (yeast gene YKL107W, cultured two hours with substance) was 28.2 and the “The level of expressed mRNA in the presence of chemical substance/The level of expressed mRNA in the absence of chemical substance” value (yeast gene YKL151C, cultured two hours with substance) was 3.3. The “The level of expressed mRNA in the presence of chemical substance/The level of expressed mRNA in the absence of chemical substance” value (yeast gene YKL153W, cultured two hours with substance) was 0.8, the “The level of expressed mRNA in the presence of chemical substance/The level of expressed mRNA in the absence of chemical substance” value (yeast gene YKL195W, cultured two hours with substance) was 3.6 and the “The level of expressed mRNA in the presence of chemical substance/The level of expressed mRNA in the absence of chemical substance” value (yeast gene YKR091W, cultured two hours with substance) was 1.0. For the same molecule, the “The level of expressed mRNA in the presence of chemical substance/The level of expressed mRNA in the absence of chemical substance” value (yeast gene YLL055W (transport facilitation protein gene)) was 19.1, the “The level of expressed mRNA in the presence of chemical substance/The level of expressed mRNA in the absence of chemical substance” value (yeast gene YLL056C, cultured two hours with substance) was 58.8 and the “The level of expressed mRNA in the presence of chemical substance/The level of expressed mRNA in the absence of chemical substance” value (yeast gene YLL060C (stress protein genes)) was 13.0. The “The level of expressed mRNA in the presence of chemical substance/The level of expressed mRNA in the absence of chemical substance” value (yeast gene YLL062C, cultured two hours with substance) was 14.9, the “The level of expressed mRNA in the presence of chemical substance/The level of expressed mRNA in the absence of chemical substance” value (yeast gene YLR031W, cultured two hours with substance) was 0.9 and the “The level of expressed mRNA in the presence of chemical substance/The level of expressed mRNA in the absence of chemical substance” value (yeast gene YLR054C, cultured two hours with substance) was 2.7. For the same molecule, the “The level of expressed mRNA in the presence of chemical substance/The level of expressed mRNA in the absence of chemical substance” value (yeast gene YLR149C, cultured two hours with substance) was 6.2, the “The level of expressed mRNA in the presence of chemical substance/The level of expressed mRNA in the absence of chemical substance” value (yeast gene YLR152C, cultured two hours with substance) was 0.6 and the “The level of expressed mRNA in the presence of chemical substance/The level of expressed mRNA in the absence of chemical substance” value (yeast gene YLR194C, cultured two hours with substance) was 0.9. For the same molecule, the “The level of expressed mRNA in the presence of chemical substance/The level of expressed mRNA in the absence of chemical substance” value (yeast gene YLR204W, cultured two hours with the substance) was 1.4, the “The level of expressed mRNA in the presence of chemical substance/The level of expressed mRNA in the absence of chemical substance” value (yeast gene YLR205C, cultured two hours with substance) was 1.5 and the “The level of expressed mRNA in the presence of chemical substance/The level of expressed mRNA in the absence of chemical substance” value (yeast gene YLR324W, cultured two hours with substance) was 3.1. The “The level of expressed mRNA in the presence of chemical substance/The level of expressed mRNA in the absence of chemical substance” value (yeast gene YLR350W, cultured two hours with substance) was 0.6, the “The level of expressed mRNA in the presence of chemical substance/The level of expressed mRNA in the absence of chemical substance” value (yeast gene YLR387C, cultured two hours with substance) was 7.8 and the “The level of expressed mRNA in the presence of chemical substance/The level of expressed mRNA in the absence of chemical substance” value (yeast gene YLR460C, cultured two hours with substance) was 13.9. For the same molecule, the “The level of expressed mRNA in the presence of chemical substance/The level of expressed mRNA in the absence of chemical substance” value (yeast gene YML117W, cultured two hours with substance) was 1.0, the “The level of expressed mRNA in the presence of chemical substance/The level of expressed mRNA in the absence of chemical substance” value (yeast gene YMR009W, cultured two hours with substance) was 3.4 and the “The level of expressed mRNA in the presence of chemical substance/The level of expressed mRNA in the absence of chemical substance” value (yeast gene YMR067C, cultured two hours with substance) was 4.0. For the same molecule, the “The level of expressed mRNA in the presence of chemical substance/The level of expressed mRNA in the absence of chemical substance” value (yeast gene YMR090W, cultured two hours with substance) was 16.7, the “The level of expressed mRNA in the presence of chemical substance/The level of expressed mRNA in the absence of chemical substance” value (yeast gene YMR097C, cultured two hours with substance) was 2.1 and the “The level of expressed mRNA in the presence of chemical substance/The level of expressed mRNA in the absence of chemical substance” value (yeast gene YMR102C, cultured two hours with substance) was 1.7. The “The level of expressed mRNA in the presence of chemical substance/The level of expressed mRNA in the absence of chemical substance” value (yeast gene YMR107W, cultured two hours with substance) was 6.0, the “The level of expressed mRNA in the presence of chemical substance/The level of expressed mRNA in the absence of chemical substance” value (yeast gene YMR140W, cultured two hours with substance) was 1.8 and the “The level of expressed mRNA in the presence of chemical substance/The level of expressed mRNA in the absence of chemical substance” value (yeast gene YMR180C, cultured two hours with substance) was 1.8. The “The level of expressed mRNA in the presence of chemical substance/The level of expressed mRNA in the absence of chemical substance” value (yeast gene YMR184W, cultured two hours with substance) was 2.1, the “The level of expressed mRNA in the presence of chemical substance/The level of expressed mRNA in the absence of chemical substance” value (yeast gene YMR191W, cultured two hours with substance) was 2.2 and the “The level of expressed mRNA in the presence of chemical substance/The level of expressed mRNA in the absence of chemical substance” value (yeast gene YMR195W, cultured two hours with substance) was 0.2. The “The level of expressed mRNA in the presence of chemical substance/The level of expressed mRNA in the absence of chemical substance” value (yeast gene YMR295C, cultured two hours with substance) was 1.0 and the “The level of expressed mRNA in the presence of chemical substance/The level of expressed mRNA in the absence of chemical substance” value (yeast gene YMR315W, cultured two hours with substance) was 2.4.

Source: patent publication US20100041089A1, “IMPROVED METHOD FOR DETECTING CHEMICAL […]” (priority 2006, published 2010)
